Test [1] concerns the target T1, Bromodomain-containing protein 4 (Homo sapiens, UniProt O60885). Briefly: Binding affinity to human recombinant BRD4BD2 (333 to 460 residues) expressed in Escherichia coli […] (DE3) by fluorescence polarization analysis. On the technique in general: In fluorescence polarisation assays a small probe gives low polarisation when free and higher when bound to something large.

Test [2] concerns the target T1, Bromodomain-containing protein 4. Description: Binding affinity to human recombinant BRD4BD1 (44 to 168 residues) expressed in Escherichia coli […] (DE3) by fluorescence polarization analysis.

SMILES strings stand for the structures. pKi: −log10 of the molar value. A value given as a limit tells only on which side of the number the result lay.

Ki data for 3 molecules are collected here from ChEMBL document CHEMBL5360664, “Design, Construction, and Screening of Diversified Pyrimidine-Focused DNA-Encoded Libraries” (ACS Med Chem Lett, 2023).

What is called pKi is −log10 of the Ki, conventionally taken in molar units.

For the molecule `CNc1cc(-c2ccc(=O)n(C)c2)nc(NCc2ccc(OC(F)(F)F)cc2)n1`, the pKi was below 4.00 in test [1] and 6.12 in test [2].
The matching figures for `CNc1cc(-c2ccc(=O)n(C)c2)nc(NCc2cccc3ccccc23)n1`: below 4.00 and 6.17.
The matching figures for `CNc1nc(NCc2cccc(-c3ccc(=O)n(C)c3)c2)cc(-c2ccc(=O)n(C)c2)n1`: 5.84 and 6.04.
